The results in this text go back to US20120116095A1, “GLYCINE TRANSPORTER INHIBITORS” (TAISHO PHARMACEUTICAL C0., LTD., priority 2009, published 2012).

One data set addresses T1, P-glycoprotein (P-gp) (Homo sapiens, UniProt P08183).
T1 construct: expressed in transfected cells; host or cells: LLC-GA5-COL300 (pig kidney LLC-PK1 cells expressing human MDR1)
Put plainly: Test for substrate recognition by P-gp (LLC-GA5-COL300 cells). Type of data set: in vitro ADME. Particulars: 10 μM, Human MDR1-expressing LLC-GA5-COL300 cells, Apical to Basolateral and Basolateral to Apical. From the text:
In the case of drugs that act on the central nervous system, it is generally important for such drugs to be transferred from blood into brain for development of their efficacy. In the blood-brain barrier, there is found P-glycoprotein (P-gp), which is a typical member of the efflux transporters that control drug penetration; and P-gp inhibits the penetration of its substrate drugs into the brain. Thus, in developing a drug, recognition performance as a P-gp substrate can be used as an indicator of brain penetration.
A test for substrate recognition by P-gp was conducted as described in J. Pharmacol. Exp. Ther. (1992) Vol. 263, No. 2, 840-845 and J. Biol. Chem. (1992) Vol. 267, No. 34, 24248-24252. Specifically, LLC-GA5-COL300 cells (i.e., a Human MDR1-expressing system originating from a pig kidney-derived cultured renal epithelial cell line, LLC-PK1) were used after being cultured for 4 days on trans wells, and the medium in each well was replaced by Hank's balanced salt solution (HBSS) immediately before use in the test. After a test compound solution (i.e., a DMSO solution of a test compound, which was further diluted with HBSS and adjusted to a final concentration of 10 μM) was added to the Donor side of the LLC-GA5-COL300 cells, aliquots of HBSS were sampled over time from the Acceptor side to determine the test compound concentration in each collected sample by LC-MS/MS.
The membrane permeability coefficient (×10^−6 cm/sec) was calculated by the accumulated amount of the compound into the Acceptor side for both directions, Apical to Basolateral and Basolateral to Apical. and the ratio of these coefficients (Efflux Ratio) was then used to evaluate substrate recognition by P-gp.

Data set [1] concerns the target T2, human type 1 glycine transporter (GlyT1) (Homo sapiens, UniProt P48067).
T2 construct: Glioma T98G cells endogenously expressing human type 1 glycine transporter (GlyT1) were used; endogenous in cells; host or cells: T98G human glioma cells
T2 sequence (P48067 1-706): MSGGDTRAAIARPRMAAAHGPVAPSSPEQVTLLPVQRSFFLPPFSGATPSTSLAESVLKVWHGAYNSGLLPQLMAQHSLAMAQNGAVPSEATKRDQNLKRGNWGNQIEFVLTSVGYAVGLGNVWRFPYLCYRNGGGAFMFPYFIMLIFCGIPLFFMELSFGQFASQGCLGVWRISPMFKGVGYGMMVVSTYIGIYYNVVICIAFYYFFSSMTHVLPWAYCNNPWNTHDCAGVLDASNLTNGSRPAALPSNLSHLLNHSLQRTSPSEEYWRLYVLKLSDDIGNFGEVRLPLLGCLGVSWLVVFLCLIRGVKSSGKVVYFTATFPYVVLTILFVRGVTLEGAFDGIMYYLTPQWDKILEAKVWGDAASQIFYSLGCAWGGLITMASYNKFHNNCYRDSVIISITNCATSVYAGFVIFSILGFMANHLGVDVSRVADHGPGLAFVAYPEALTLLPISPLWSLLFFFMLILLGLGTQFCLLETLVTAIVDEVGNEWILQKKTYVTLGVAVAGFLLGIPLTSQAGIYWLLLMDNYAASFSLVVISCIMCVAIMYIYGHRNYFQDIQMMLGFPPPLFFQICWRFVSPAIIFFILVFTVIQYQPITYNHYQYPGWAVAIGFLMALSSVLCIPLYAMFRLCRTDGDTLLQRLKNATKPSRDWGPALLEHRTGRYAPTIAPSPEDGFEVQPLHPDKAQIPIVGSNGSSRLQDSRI
Put plainly: Glycine uptake inhibition experiment ([3H]glycine uptake in T98G cells). Type of data set: cell-based. The following applies: [3H]glycine 250 nM, 15 min, room temperature. As for the experimental part: A glycine uptake experiment was conducted as described in Neuron, 8, 927-935, 1992. Glioma T98G cells endogenously expressing human type 1 glycine transporter (GlyT1) were used. T98G cells were seeded in a 96-well plate at 2.0×10^4 cells/well and cultured overnight in a CO2 incubator. A test compound was dissolved in a 100% DMSO solution and then dissolved in 10 mM HEPES buffer (pH 7.4) containing 150 mM sodium chloride, 1 mM calcium chloride, 5 mM potassium chloride, 1 mM magnesium chloride, 10 mM glucose and 0.2% bovine serum albumin. After removing the cell culture medium, the cells were pre-treated with the test compound for 10 minutes. Subsequently, the test compound and [^3H]glycine (final concentration: 250 nM) were added to the cells and incubated at room temperature for 15 minutes. After the incubation, the extracellular solution was aspirated with a manifold to remove the excess labeled glycine existing outside the cells, and the cells were then lysed with 0.5 M aqueous sodium hydroxide. The amount of glycine uptake was determined by measuring radioactivity in the cell lysate using a liquid scintillation counter. Glycine uptake in the presence of 10 μM ALX5407 was defined as non-specific uptake, and the value calculated by subtracting this non-specific uptake from the total uptake in the absence of 10 μM ALX5407 was defined as specific uptake. Moreover, an inhibition curve was obtained for each test compound at concentrations of […] to calculate the glycine uptake inhibitory activity (IC50 value) of each test substance.
It should be noted that ALX5407 is a HCl salt of N-[(3R)-3-([1,1′-biphenyl]-4-yloxy)-3-(4-fluorophenyl)propyl]-N-methylglycine.

In the next data set the test system is male Sprague-Dawley rats. Put plainly: Social recognition test (MK-801-treated rats). Type of data set: in vivo. Particulars: rat; for Ratio (second exploration time/first exploration time): MK-801 0.1 mg/kg i.p. As for the experimental part: This experiment was performed using male Sprague-Dawley rats according to the reported method (Shimazaki et al., Psychopharmacology, 209, 263-270, 2010). Adult rats (9 weeks old) received intraperitoneal administration of MK-801 (0.1 mg/kg), and were immediately placed in test cages and acclimated for 30 minutes. Thereafter, juvenile rats (4 weeks old) were placed in the same test cages, where juvenile rats and adult rats were left for 5 minutes, during which the time it took for the adult rats to show social behavior (sniffing, grooming, following) to the juvenile rats was measured (first exploration time). Then, the juvenile rats were removed from the test cages and returned to their home cages. After 30 minutes, the same juvenile rats that were used in the first exploration were placed in the test cages, and the time it took for the adult rats to show social behavior (sniffing, grooming, following) to the juvenile rats during a 5-minute period was measured (second exploration time). The social recognition was expressed as the ratio of second exploration time to first exploration time. The test substance (Compound 10) was orally administered one hour before the start of first exploration. The vehicle group was administered a 0.5% methyl cellulose solution.

[2] abbreviates: read-out: glycine uptake inhibitory activity (IC50 value).

Read-outs that look alike come from different tables or passages of the source. A value given as a limit tells only on which side of the number the result lay.

T1 sequence (P08183 whole entry): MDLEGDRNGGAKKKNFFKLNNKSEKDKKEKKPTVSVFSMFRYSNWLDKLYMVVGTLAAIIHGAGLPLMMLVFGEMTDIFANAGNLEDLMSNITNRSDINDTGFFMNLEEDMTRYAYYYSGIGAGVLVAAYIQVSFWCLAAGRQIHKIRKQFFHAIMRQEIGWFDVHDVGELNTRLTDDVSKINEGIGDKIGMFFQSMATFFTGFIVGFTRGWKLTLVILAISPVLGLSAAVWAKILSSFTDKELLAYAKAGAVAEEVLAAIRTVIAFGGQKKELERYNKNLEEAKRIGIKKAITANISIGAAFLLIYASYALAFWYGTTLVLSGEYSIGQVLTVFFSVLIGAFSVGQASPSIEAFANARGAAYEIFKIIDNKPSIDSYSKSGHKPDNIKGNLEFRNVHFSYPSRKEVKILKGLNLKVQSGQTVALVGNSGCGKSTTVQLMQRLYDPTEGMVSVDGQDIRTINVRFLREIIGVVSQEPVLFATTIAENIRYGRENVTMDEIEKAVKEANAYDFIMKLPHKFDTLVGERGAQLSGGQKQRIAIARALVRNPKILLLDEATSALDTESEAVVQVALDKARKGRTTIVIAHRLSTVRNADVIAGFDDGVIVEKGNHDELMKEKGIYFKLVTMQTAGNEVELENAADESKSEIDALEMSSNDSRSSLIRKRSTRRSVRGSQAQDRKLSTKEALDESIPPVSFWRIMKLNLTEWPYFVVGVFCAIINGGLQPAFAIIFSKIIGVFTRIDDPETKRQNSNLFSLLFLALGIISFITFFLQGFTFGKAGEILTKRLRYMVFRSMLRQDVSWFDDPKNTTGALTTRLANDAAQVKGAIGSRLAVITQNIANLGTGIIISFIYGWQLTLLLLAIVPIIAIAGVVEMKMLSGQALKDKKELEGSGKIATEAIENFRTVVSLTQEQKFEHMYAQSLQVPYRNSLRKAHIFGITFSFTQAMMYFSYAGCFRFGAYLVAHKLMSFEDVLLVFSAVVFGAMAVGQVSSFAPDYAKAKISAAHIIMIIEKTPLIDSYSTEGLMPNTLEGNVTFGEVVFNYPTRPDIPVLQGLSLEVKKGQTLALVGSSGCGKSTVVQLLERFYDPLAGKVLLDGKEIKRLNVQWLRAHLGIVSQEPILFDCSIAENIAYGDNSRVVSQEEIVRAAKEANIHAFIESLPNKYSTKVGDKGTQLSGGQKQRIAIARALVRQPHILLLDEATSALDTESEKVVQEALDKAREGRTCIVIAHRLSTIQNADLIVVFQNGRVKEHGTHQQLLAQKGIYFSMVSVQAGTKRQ

For `CC(C)N(Cc1ccc(F)c(-c2ccc(OC(F)(F)F)cc2)c1)C(=O)c1cn(C)cn1` [Compound 10, N-{[6-Fluoro-4′-(trifluoromethoxy)biphenyl-3-yl]methyl}-1-methyl-N-(propan-2-yl)-1H-imidazole-4-carboxamide], the “recognition as a P-gp substrate (Efflux Ratio criteria)” value at P-glycoprotein (P-gp) was “not to be recognized as a P-gp substrate”. The IC50 (commonly the concentration needed to halve the response being measured) in data set [1] (setting [2]) was determined as 14.8 nM. Moreover, the “Ratio (second exploration time/first exploration time)” value in the data set with male Sprague-Dawley rats (0.1 mg/kg orally one hour before first exploration, p<0.05) is on record as 0.65 ± 0.05 ^p<0.05; in the data set with male Sprague-Dawley rats (0.3 mg/kg orally one hour before first exploration, p<0.01), 0.60 ± 0.06 ^p<0.01. Besides, the “effect on cognitive functions (social recognition, in words)” value in the data set with male Sprague-Dawley rats (compared to the vehicle group, oral) is “enhancing effect on cognitive functions”.

Take `COc1cccc(-c2cc(CN(C(=O)c3cn(C)cn3)C(C)C)ccc2F)c1` [Compound 24]: the “recognition as a P-gp substrate (Efflux Ratio criteria)” value at P-glycoprotein (P-gp) is “not to be recognized as a P-gp substrate”. For the same compound, the IC50 in data set [1] (setting [2]) is 14.2 nM.

Regarding `CC(C)N(Cc1ccc(F)c(-c2cc(F)c(F)c(F)c2)c1)C(=O)c1cn(C)cn1` [Compound 36], the “recognition as a P-gp substrate (Efflux Ratio criteria)” value on P-glycoprotein (P-gp) is given as “not to be recognized as a P-gp substrate”. In addition, the IC50 in data set [1] (setting [2]) was found to be 38.2 nM.

As to `CC(C)N(Cc1ccc(F)c(-c2ccc(OC(F)(F)F)cc2)c1)C(=O)c1c[nH]cn1` [Compound 54], the “recognition as a P-gp substrate (Efflux Ratio criteria)” value on P-glycoprotein (P-gp) was “not to be recognized as a P-gp substrate”. In data set [1] (read-out: glycine uptake inhibitory activity (IC50 value), bounds), the IC50 is more than 1000 nM.
